In assay [1] the target is T1, MC1r (Homo sapiens, UniProt Q01726).
T1 construct: expressed in transfected cells; host or cells: HEK-293 (membrane homogenates)
Nature of the assay: Competitive inhibition binding assay, MC1r. Particulars: binding studies. Here is the method: (§1) A competitive inhibition binding assay is performed using membrane homogenates prepared from HEK-293 cells that express recombinant hMC1ra, hMC4r, hMC3r, or hMC5r, and from B16-F10 mouse melanoma cells (containing endogenous MC1r). In the examples that follow, all values are for human recombinant receptors unless otherwise noted. Assays are performed in 96 well GF/B Millipore multiscreen filtration plates (MAFB NOB10) pre-coated with 0.5% bovine serum albumin (Fraction V). […] After incubation for 60 to 90 minutes at 37° C., the assay mixture is filtered and the membranes washed three times with ice-cold buffer. Filters are dried and counted in a gamma counter for bound radioactivity.
(§2) Maximal specific binding (100%) is defined as the difference in radioactivity (cpm) bound to cell membranes in the absence and presence of 1 μM NDP-α-MSH. […] Each assay is conducted in duplicate or triplicate and the actual mean values are described, with results less than 0% reported as 0%. Ki values for test compounds are determined using Graph-Pad Prism® curve-fitting software.

In assay [2] the target is T2, MC4r (Homo sapiens, UniProt P32245). Nature of the assay: cAMP functional study in human MC4r expression system approximating maximal physiologic receptor densities. Particulars: low receptor density human MC4r system; for Emax: read-out: relative efficacy, compared to NDP-α-MSH. The arrangement: host or cells: TREx-293. It counts as cell-based. Here is the method: Assay for Agonist Activity. Accumulation of intracellular cAMP was examined as a measure of the ability of the peptides of the present invention to elicit a functional response in HEK-293 cells that express MC4-R. Confluent HEK-293 cells that express recombinant hMC4-R were detached from culture plates by incubation in enzyme-free cell dissociation buffer. Dispersed cells were suspended in Hanks' Balanced Salt Solution containing 10 mM HEPES (pH 7.5), 1 mM MgCl2, 1 mM glutamine, 0.5% albumin and 0.3 mM 3-isobutyl-1-methyl-xanthine (IBMX), a phosphodiesterase inhibitor. The cells were plated in 96-well plates at a density of 0.5×10^5 cells per well and pre-incubated for 10 minutes. Cells were exposed for 15 minutes at 37° C. to peptides of the present invention dissolved in DMSO (final DMSO concentration of 1%) at a concentration range of 0.05-5000 nM in a total assay volume of 200 μL. NDP-α-MSH was used as the reference agonist. cAMP levels were determined by an HTRF® cAMP cell-based assay system from Cisbio Bioassays utilizing cryptate-labeled anti-cAMP and d2-labeled cAMP, with plates read on a Perkin-Elmer Victor plate reader at […]. Data analysis was performed by nonlinear regression analysis with Graph-Pad Prism® software. The maximum efficacies of the test peptides of the present invention were compared to that achieved by the reference melanocortin agonist NDP-αMSH.
Low Receptor Density Systems. In functional studies preferably a human MC4r expression system approximating maximal human physiologic receptor densities is employed. In one aspect, a tetracycline-regulated mammalian expression system that uses regulatory elements from the E. coli Tn10-encoded tetracycline (Tet) resistance operon was employed (T-REx™ System, Invitrogen). By use of the T-REx™ System, expression of the gene of interest, the human MC4-R gene, was repressed in the absence of tetracycline or doxycycline and induced in the presence of tetracycline or doxycycline, with receptor density being dependent on the concentration of tetracycline or doxycycline. See generally Yao F. et al: Tetracycline repressor, tetR, rather than the tetR-mammalian cell transcription factor fusion derivatives, regulates inducible gene expression in mammalian cells. Hum. Gene Ther. 9:1939-1950 (1998), incorporated here by reference. Regulation was based on the binding of tetracycline or doxycycline, a derivative of tetracycline, to the Tet repressor and derepression of the promoter controlling expression of the human MC4-R gene. In general tetracycline or related regulators, such as tetracycline-derivatives, may be used to induce the gene expression. An inducible expression plasmid for expression of human MC4-R gene under the control of the strong human cytomegalovirus immediate-early (CMV) promoter and two tetracycline operator 2 (TetO2) sites was employed, together with a regulatory plasmid, pcDNA6/TR, which encodes the Tet repressor (TetR) under the control of the human SV40 promoter. Thus, expression of the human MC4-R gene from the inducible expression vector was controlled by the strong CMV promoter into which 2 copies of the tet operator 2 (TetO2) sequence had been inserted in tandem. The TetO2 sequences consisted of 2 copies of 19-nucleotide sequence separated by a 2 base pair spacer. Each 19 nucleotide TetO2 sequence served as the binding site for 2 molecules of the Tet repressor. The expression vector pcDNA4/TO/MC4R was introduced into TREx-293 (Invitrogen, R710-07), a cell line stably expressing the tetracycline repressor pcDNA6/TR using lipofectamin 2000 reagent (Invitrogen, 11668-019). Alternatively, both the expression vector and repressor are introduced into host cells by standard transformation or transfection methods.

Assay [3] concerns the target T2, MC4r. As to the kind of experiment: Competitive inhibition binding assay, MC4r. The arrangement: expressed in transfected cells; host or cells: HEK-293 (membrane homogenates). Particulars: binding studies. Here is the method: as §1, §2
Competitive Binding Assay Using Eu-NDP-α-MSH. Alternatively, a competitive inhibition binding assay is performed employing Eu-NDP-α-MSH (PerkinElmer Life Sciences catalog No. AD0225) with determination by time-resolved fluorometry (TRF) of the lanthanide chelate. […] After incubation for 90 minutes at 37° C., the reaction was stopped by filtration over Acro Well 96-well filter plates (Pall Life Sciences). The filter plates were washed 4 times with 200 μL of ice-cold phosphate-buffered saline. DELFIA Enhancement solution (PerkinElmer Life Sciences) was added to each well. The plates were incubated on a shaker for 15 minutes and read at 340 nm excitation and 615 nm emission wavelengths. Each assay was conducted in duplicate and mean values were utilized. Ki values were determined by curve-fitting with Graph-Pad Prism® software using a one-site fixed-slope competition binding model.

Assay [4] has as its system C57BL/6 male DIO mice. Nature of the assay: Body weight and food intake in vivo study in diet induced obese mice. The arrangement: species or system mouse. Particulars: for Body Weight Change (%) Mean / Food Intake - 24 Hours (g) Mean: 1 mg/kg subcutaneous twice daily. The procedure:
Compound 7.1 was assessed in a body weight and food intake in vivo study in diet induced obese […] mice. C57BL/6 male DIO mice were utilized, that were 17 weeks of age on arrival. Animals were pre-conditioned on a high-fat diet for 11 weeks by Jackson Labs. […] Animals were single housed within a limited access rodent facility, and provided ad libitum with a commercial rodent diet and free access to drinking water. Animals were randomized into five groups, a vehicle group, three dose levels of compound 7.1 (3 mg/kg, 10 mg/kg and 30 mg/kg), and Peptide A, a positive control cyclic peptide of the formula Ac-Arg-cyclo(Orn-Asn-D-Phe-Arg-Trp-Glu)-NH2. Following three days of sham dosing, animals were dosed for three days, with vehicle or Compound 7.1 dosed orally once daily at within one hour of lights out in the AM, and Peptide A dosed by subcutaneous injection twice daily within one hour before lights out and six hours after lights out. Body weights were measured one hour prior to lights out, and feed weights were measured both one hour prior to lights out and six hours post lights out.
*p<0.05 vs. sham (vehicle control) using two-way ANOVA followed by Dunnett's post-test.
**p<0.01 vs sham (vehicle control) using two-way ANOVA followed by Dunnett's post-test.

Marks after values point to notes of the source that are not given here.

T2 sequence (P32245 whole entry): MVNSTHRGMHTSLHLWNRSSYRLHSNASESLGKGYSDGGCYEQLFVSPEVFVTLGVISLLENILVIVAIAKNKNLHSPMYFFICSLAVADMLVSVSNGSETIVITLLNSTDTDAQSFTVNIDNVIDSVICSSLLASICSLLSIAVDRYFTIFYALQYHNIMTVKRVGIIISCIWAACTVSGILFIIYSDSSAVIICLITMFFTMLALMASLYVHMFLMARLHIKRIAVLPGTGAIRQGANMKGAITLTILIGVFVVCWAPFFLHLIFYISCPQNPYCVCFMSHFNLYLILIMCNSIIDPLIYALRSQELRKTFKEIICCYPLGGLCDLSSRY
T1 sequence (Q01726 whole entry): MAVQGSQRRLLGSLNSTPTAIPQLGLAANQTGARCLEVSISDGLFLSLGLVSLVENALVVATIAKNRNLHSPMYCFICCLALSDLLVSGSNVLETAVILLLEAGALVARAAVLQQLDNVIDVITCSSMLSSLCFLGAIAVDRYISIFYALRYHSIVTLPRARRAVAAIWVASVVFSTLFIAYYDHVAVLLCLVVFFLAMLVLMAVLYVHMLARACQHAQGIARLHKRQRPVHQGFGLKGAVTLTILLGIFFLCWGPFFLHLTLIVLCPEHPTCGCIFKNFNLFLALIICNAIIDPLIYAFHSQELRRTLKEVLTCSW

For the compound `CCNC(=O)N1CCC(N(CC(C)C)N2CCN(C(=O)[C@@H](Cc3ccc(Cl)cc3)NC(=O)C(C)(C)N)CC2)CC1` [Compound 7.8, 4-[[4-[(2R)-2-[(2-amino-2-methyl-propanoyl)amino]-3-(4-chlorophenyl)propanoyl]piperazin-1-yl]-isobutyl-amino]-N-ethyl-piperidine-1-carboxamide], affinity in assay [1] was put at a Ki of 150 nM. For the same compound, in assay [2], the EC50 was 52 nM and the Emax stood at 28%. In assay [3], the affinity, expressed as Ki, was 6 nM.
For the compound “Ac-Arg-cyclo(Orn-Asn-D-Phe-Arg-Trp-Glu)-NH2 [Peptide A]”, the “Body Weight Change (%) Mean” value in assay [4] (Day 0) is on record as 0%; in assay [4] (Day 1), −5.69** %; in assay [4] (Day 2) it was −8.37** %; in assay [4] (Day 3), −8.78** %. The “Food Intake - 24 Hours (g) Mean” value in assay [4] (Day 0, 24 hours post lights out) was 0.99** g; in assay [4] (Day 1, 24 hours post lights out), 1.10** g; in assay [4] (Day 2, 24 hours post lights out), 1.67** g. The “effect on feed intake at 24 hours post lights out (in words)” value in assay [4] (1 mg/kg, entirety of the study, compared with sham animals) is on record as “significantly inhibited feed intake”. Also, the “effect on body weight (in words)” value in assay [4] (two times daily 1 mg/kg, throughout the study) is “decreased animal body weights”.
Consider `CC(C)CN(C1CCN(C(=O)CO)CC1)N1CCN(C(=O)[C@@H](Cc2ccc(Cl)cc2)NC(=O)C(C)(C)N)CC1` [Compound 7.10, 2-amino-N-[(1R)-1-[(4-chlorophenyl)methyl]-2-[4-[[1-(2-hydroxyacetyl)-4-piperidyl]-isobutyl-amino]piperazin-1-yl]-2-oxo-ethyl]-2-methyl-propanamide], for which, in assay [2], the concentration giving a half-maximal response (EC50) is 9 nM and the Emax worked out at 22%. In assay [3], this compound registered a Ki of 5 nM.
Regarding `CNC(C)(C)C(=O)N[C@H](Cc1ccc(Cl)cc1)C(=O)N1CCN(N(CC(C)C)C2CCN(C(C)=O)CC2)CC1` [Compound 7.9, N-[(1R)-2-[4-[(1-acetyl-4-piperidyl)-isobutyl-amino]piperazin-1-yl]-1-[(4-chlorophenyl)methyl]-2-oxo-ethyl]-2-methyl-2-(methylamino)propanamide], the “relative efficacy, compared to NDP-α-MSH” value in assay [2] was 19%.
Turning to `CC(=O)N1CCC(N(CC(C)C)N2CCN(C(=O)[C@@H](Cc3ccc(Cl)cc3)NC(=O)C3(N)CCCCCC3)CC2)CC1` [Compound 7.7, N-[(1R)-2-[4-[(1-acetyl-4-piperidyl)-isobutyl-amino]piperazin-1-yl]-1-[(4-chlorophenyl)methyl]-2-oxo-ethyl]-1-amino-cycloheptanecarboxamide], the Emax in assay [2] turned out to be 8%. In addition, affinity in assay [3] was put at a Ki of 3 nM.
`CCC(N)(CC)C(=O)N[C@H](Cc1ccc(Cl)cc1)C(=O)N1CCN(N(CC(C)C)C2CCN(C(C)=O)CC2)CC1` [Compound 7.6, N-[(1R)-2-[4-[(1-acetyl-4-piperidyl)-isobutyl-amino]piperazin-1-yl]-1-[(4-chlorophenyl)methyl]-2-oxo-ethyl]-2-amino-2-ethyl-butanamide]: in assay [2], the EC50 amounted to 25 nM and the Emax stood at 34%. In addition, the affinity in assay [3] corresponds to a Ki of 13 nM.
As to `CC(=O)N1CCC(N(CC(C)C)N2CCN(C(=O)[C@@H](Cc3ccc(Cl)cc3)NC(=O)C3(N)CCCC3)CC2)CC1` [Compound 7.4, N-[(1R)-2-[4-[(1-acetyl-4-piperidyl)-isobutyl-amino]piperazin-1-yl]-1-[(4-chlorophenyl)methyl]-2-oxo-ethyl]-1-amino-cyclopentanecarboxamide], the Emax in assay [2] was 10%. In assay [3], this compound came in with a Ki of 4 nM.
In the case of `CC(=O)N1CCC(N(CC(C)C)N2CCN(C(=O)[C@@H](Cc3ccc(Cl)cc3)NC(=O)C3(N)CCCCC3)CC2)CC1` [Compound 7.5, N-[(1R)-2-[4-[(1-acetyl-4-piperidyl)-isobutyl-amino]piperazin-1-yl]-1-[(4-chlorophenyl)methyl]-2-oxo-ethyl]-1-amino-cyclohexanecarboxamide], in assay [2], a half-maximal effect (EC50) was put at 9 nM and the Emax is 15%. The compound further showed a Ki in assay [3] of 4 nM.
In the same order, the values of `CC(=O)N1CCC(N(CC(C)C)N2CCN(C(=O)[C@@H](Cc3ccc(Cl)cc3)NC(=O)C3(C)CCCN3)CC2)CC1` (stereo partly drawn) [Compound 7.11, N-[(1R)-2-[4-[(1-acetyl-4-piperidyl)-isobutyl-amino]piperazin-1-yl]-1-[(4-chlorophenyl)methyl]-2-oxo-ethyl]-2-methyl-pyrrolidine-2-carboxamide] are 6 nM, 13% and 6 nM.
For the compound `CC(=O)N1CCC(N(CC(C)C)N2CCN(C(=O)[C@@H](Cc3ccc(Cl)cc3)NC(=O)C3(N)CCC3)CC2)CC1` [Compound 7.3, N-[(1R)-2-[4-[(1-acetyl-4-piperidyl)-isobutyl-amino]piperazin-1-yl]-1-[(4-chlorophenyl)methyl]-2-oxo-ethyl]-1-amino-cyclobutanecarboxamide], in assay [2], the Emax was found to be 10%. The Ki in assay [3] came to 3 nM.

For the origin of these results see patent US20210198201A1, “Orally Active Melanocortin Receptor-4 Compounds” (Palatin Technologies, Inc., priority 2018, published 2021).
